Source: BigSolDB 2.1

CC1=C(O)C(=O)C(C)O1 (configuration not stated)
solubility (mole fraction)
Settings	283.15 K	288.15 K	293.15 K	298.15 K	303.15 K	308.15 K	313.15 K
in ethanol	0.12	0.151	0.188	0.234	0.287	0.351	0.427
in methanol	0.143	0.174	0.21	0.257	0.31	0.374	0.449
in n-butanol	0.0954	0.124	0.156	0.196	0.247	0.307	0.382
in n-hexane	0.0054	0.0073	0.0096	0.0125	0.0163	0.0211	0.0271
in n-propanol	0.11	0.138	0.174	0.216	0.268	0.332	0.408
in water	0.0091	0.015	0.0251	0.0408	0.0665	0.107	0.173
